From article PMC10733463, “Berberine-microbiota interplay: orchestrating gut health through modulation of the gut microbiota and metabolic transformation into bioactive metabolites” (Frontiers in Pharmacology, 2023) come the findings set out here.

Data set [1] is described as follows: UPLC-MS/MS quantification of berberine and metabolites in plasma. Type of data set: in vivo, Ross 308 broiler chickens. Particulars: chickens fed 0.1, 0.5 or 1 g berberine/kg feed for 21 days; LOQ 0.1 ng/mL. The source says:
(§1) The study was undertaken following the guidelines of the ethics committee of the Faculty of Veterinary Medicine and Bioscience Engineering, Ghent University, in accordance with the EU Directive 2010/63/EU. One-day-old Ross 308 male broilers were obtained from a local hatchery and housed in pens on wood shavings. They were allotted into 4 groups, with three replicate pens per group each housing 8 chickens. The animals were not vaccinated. Water and commercial starter feed (day 1–12, FARM 1 Mash, Country’s Best, Versele Laga, Deinze, Belgium) or grower (day 13–21, FARM 2 mash, Country’s Best, Versele Laga, Deinze, Belgium) were provided ad libitum. The control group received the standard non-supplemented diets, whereas the chickens in other groups were fed the same feed supplemented with 0.1, 0.5 or 1 g berberine/kg feed throughout the whole trial period. At day 21, 4 birds per pen were weighted then euthanized by sodium pentobarbital injection for sampling. Individual jejunal, ileal, caecal and colonic contents were stored at −20°C for microbiota composition analysis (16S rRNA gene sequencing). Additionally, ileal and caecal content samples were collected and stored at −20°C for berberine and berberine-derived metabolite quantification. Duodenal tissue samples were collected and fixed in 4% phosphate buffered formaldehyde for histological analysis. Blood samples were collected in heparin tubes and centrifuged at 524 g for 10 min to recover the plasma fraction, which was further mixed with 17 mg/mL L-ascorbic acid for dihydroberberine stabilization, and stored at −20°C for berberine and berberine-derived metabolite quantification.
(§2) The column temperature was maintained at 25°C. The autosampler temperature was set at 10°C.
A 137.5 µL plasma sample containing 17 mg/mL L-ascorbic acid was used for sample extraction. The ascorbic acid solution was added to prevent oxidation of dihydroberberine to berberine during sample storage ([Feng et al., 2015]). The plasma sample was transferred to an OstroTM 96 well-plate (25 mg) (Waters). Subsequently, 50 µL Milli-Q water and 25 µL of an internal standard solution containing 100 ng/mL of both berberine-d6 and tetrahydropalmatine were added. A 640 µL volume of 1% (v/v) formic acid solution in acetonitrile (1/3 ratio) was added, followed by gentle mixing. Vacuum was applied on the Ostro™ plate for 5 min and the eluate was collected in a 2 mL square 96-well collector plate. The sample was transferred in a glass tube and evaporated at 40°C under a gentle stream of nitrogen in a Pierce (Rockford, United States) Reacti-Therm III™ Heating Module and Reacti-Vap™ III Module. The dried sample extract was reconstituted in 500 µL Milli-Q water, followed by injection of a 5 µL sample aliquot onto the UPLC-MS/MS apparatus. Quantification was based on the ratio of the analyte peak area compared to the peak area of the internal standard berberine-d6.
Calibration standards and quality control samples were prepared as follows: 137.5 µL of blank plasma stabilized with 17 mg/mL L-ascorbic acid were supplemented with 25 µL mixed working solutions of berberine and metabolites (except dihydroberberine) at different levels, 25 µL of dihydroberberine working solution, stabilized with 17 mg/mL L-ascorbic acid, at different levels and 25 µL of an internal standard solution containing 100 ng/mL of both berberine-d6 and tetrahydropalmatine. The calibration curve was in the 0.1–100 ng/mL range, including 0.1, 0.5, 1, 2.5, 5, 10, 25, […], 50 and 100 ng/mL levels.
The UPLC-MS/MS analysis method for the quantification of berberine and berberine-derived metabolites both in plasma and ileal/caecal intestinal content was validated to the guidelines of the European Medicines Agency, i.e., of the Committee for Veterinary Medicinal Products (EMEA/CVMP/VICH/463202/2009) and of the Committee for Medicinal Products for Human Use (EMEA/CHMP/EWP/192217/20), and in accordance with the EU Directive 2002/657/EC. […]

Data set [2] in a line: UPLC-MS/MS quantification of berberine and metabolites in ileal and caecal content. It counts as in vivo, Ross 308 broiler chickens. Particulars: 21 days.
Excerpt: as §1, §2
250 mg of ileal or caecal content was weighed in a 15 mL polypropylene centrifuge tube and 250 µL of ascorbic acid 170 mg/mL solution was added for stabilization of dihydroberberine, followed by brief vortexing. Subsequently, 25 µL of an internal standard solution containing 250 μg/mL of berberine-d6 and 2.5 μg/mL tetrahydropalmatine were added, followed by brief vortexing. A 2.5 mL volume of extraction solvent was then added, consisting of a 1% (v/v) formic acid solution in methanol. The sample was put on a rotary shaker set at 80 rpm for 20 min, followed by centrifugation (3,720 g, 10 min, 4°C). The supernatant was then diluted, by a factor 5 for measurement of low abundance components, and by a factor 2,000 for measurement of high abundance components. The 1/5 diluted sample extract was prepared directly in an autosampler vial as follows: 200 µL sample extract were mixed with 100 µL ascorbic acid 170 mg/mL solution and 700 µL Milli-Q water. For the 1/2,000 diluted sample extract, an intermediate 1/100 sample dilution was prepared by combining 500 µL sample extract and 49.5 mL of Milli-Q water. 50 μL was then transferred in an autosampler vial followed by the addition of 950 µL of Milli-Q water. For both dilutions, a 5 µL sample aliquot was injected onto the UPLC-MS/MS apparatus. Quantification was based on the ratio of the analyte peak area compared to the peak area of the internal standard tetrahydropalmatine for 1/5 diluted sample extracts, and on the ratio of the analyte peak area compared to the peak area of the internal standard berberine-d6 for 1/2,000 diluted sample extracts.
Calibration standards and quality control samples were prepared as follows: 250 mg of blank ileal or caecal content were supplemented with 250 µL of ascorbic acid 170 mg/mL solution, 25 µL mixed solution of berberine and metabolites (with the exception of dihydroberberine) at different levels, 25 µL of dihydroberberine solution, stabilized with 17 mg/mL ascorbic acid, at different levels and 25 µL of an internal standard solution containing 0.625 μg/mL of berberine-d6 and 2.5 μg/mL tetrahydropalmatine. The calibration curve was in the 62.5–5,000 ng/g range, and included 62.5, 125, 250, 500, 1,000, 2,500, and 5,000 ng/g levels. […]

In another data set the test system is Caco-2 cells. Kind of data set: Berberine metabolism in intestinal cell cultures, Caco-2. Type of data set: in vitro ADME, human. Particulars: Caco-2, 0.1 μg/mL berberine, 48 h. As for the experimental part: (§3) Caco-2 and T84 cells were seeded at 2 × 10^5 cells/well in 96-well plates and cultivated for 24 h in their respective medium, as described before. Cells were treated with 200 µL of 0.1 μg/mL berberine in antibiotic-free medium and incubated for 48 h. Berberine medium only was incubated in the same conditions as the cells and used as control for metabolite baseline levels. 100 μL of cell cultures or control medium were collected and centrifuged at 13,000 g for 10 min 80 μL of the supernatant was mixed with 20 µL 170 mg/mL L-ascorbic acid solution in water for dihydroberberine stabilization and stored at −20°C until metabolite analysis. All experiments were performed in triplicate at 37°C, 5% CO2. Metabolite production was expressed as a log2 fold change, calculated as the log2 of the ratio of the metabolite response at t = 48 h in the cell cultures over the metabolite response at t = 48 h in the control medium.
as §2

A further data set concerns T84 cells. Kind of data set: Berberine metabolism in intestinal cell cultures, T84. Type of data set: in vitro ADME, human. Particulars: T84, 0.1 μg/mL berberine, 48 h. As for the experimental part:
as §3, §2

Data set [3] in a line: Dihydroberberine stability in solution over 24 hours. Type of data set: physicochemical. Particulars: within 24 h; 10 ng/mL in Milli-Q water, 10°C, without vitamin C. The method, then:
A working solution of dihydroberberine at 10 ng/mL was prepared in Milli-Q water and supplemented or not with 17 mg/mL L-ascorbic acid (vitamin C) solution and injected during 24 hours of storage time in the autosampler at 10°C.

Regarding `COc1ccc2cc3n(c(=O)c2c1OC)CCc1cc2c(cc1-3)OCO2` [Oxyberberine, oxyberberine], the Detection in plasma result in data set [1] is “not detected”. Moreover, the “Ratio caecum / ileum (concentration)” value amounted to 1.94 in data set [2] (0.1 g berberine/kg feed), 1.48 in data set [2] (0.5 g berberine/kg feed) and 0.95 in data set [2] (1 g berberine/kg feed). The “Detection in cell culture” value in the data set on Caco-2 cells and in the data set with T84 cells was “not detected” in each case.

Regarding `COc1ccc2c(c1OC)CN1CCc3cc4c(cc3C1=C2)OCO4` [Dihydroberberine, dihydroberberine], the Detection in plasma entry in data set [1] was “effectively detected”. Besides, the figures for the “Ratio caecum / ileum (concentration)” value in data set [2] (0.1 g berberine/kg feed), in data set [2] (0.5 g berberine/kg feed) and in data set [2] (1 g berberine/kg feed) were 0.75, 0.27 and 0.44, respectively. The “Oxidation of dihydroberberine back to berberine” value in data set [3] is given as “up to 66%”.
